Laboratory results from patent US20150209327A1, “METHODS FOR THE TREATMENT OF OBESITY USING APREMILAST” (Celgene Corporation, priority 2014, published 2015).
pIC50: −log10 of the molar value. “And” between values parts separate entries of the source, which are not always exact repeats. Identical values can stand only once.

How the values were obtained:
[1] = test system: TNF-α production in PBMCs; assay: Inhibition of TNF-α production in PBMCs; format: cell-based; settings: PBMC
Text: The test methods were as described in WO 03/080049; Muller et al., J. Med. Chem., 1996, 39:3238; and Muller et al., Bioorg. Med. Chem. Lett., 1999, 9:1625-30.

[2] = Psoriatic Arthritis (PsA) Phase 3 Data Pool: weight change; format: in vivo, human; settings: for Weight % Change Category 0%, n (%) / Weight % Change Category <−20%, n (%) / Weight % Change Category >0% to ≦5%, n (%) / Weight % Change Category >5% to ≦10%, n (%) / Weight % Change Category >10% to ≦20%, n (%) / Weight % Change Category >20%, n (%) / Weight % Change Category ≧−5% to <0%, n (%) / Weight % Change Category ≧−10% to <−5%, n (%) / Weight % Change Category ≧−20% to <−10%, n (%): Subjects as Treated
Text: Apremilast has shown benefit of weight loss in both Phase 2 and Phase 3 Psoriatic Arthritis (PSA) and Psoriasis (PSOR) trials.

[3] = 20 mg BID, Apremilast-exposure Period, m = 943
[4] = 20 mg BID, End of Period (APR, apremilast exposure), Subjects as Initially Treated at Week 0
[5] = 20 mg BID, End of Period (PBC, Week 24), Subjects as Initially Treated at Week 0
[6] = 20 mg BID, End of Period (apremilast exposure), Apremilast Subjects as Treated
[7] = 20 mg BID, Week 52, Apremilast Subjects as Treated
[8] = 20 mg BID, Week 78, Apremilast Subjects as Treated
[9] = 30 mg BID, Apremilast-exposure Period, m = 944
[10] = 30 mg BID, End of Period (APR, apremilast exposure), Subjects as Initially Treated at Week 0
[11] = 30 mg BID, End of Period (PBC, Week 24), Subjects as Initially Treated at Week 0
[12] = 30 mg BID, End of Period (apremilast exposure), Apremilast Subjects as Treated
[13] = 30 mg BID, Week 52, Apremilast Subjects as Treated
[14] = 30 mg BID, Week 78, Apremilast Subjects as Treated

CCOc1cc([C@@H](CS(C)(=O)=O)N2C(=O)c3cccc(NC(C)=O)c3C2=O)ccc1OC [Apremilast, (+)-2-[1-(3-ethoxy-4-methoxyphenyl)-2-methylsulfonylethyl]-4-acetylaminoisoindoline-1,3-dione]
pIC50 [1]: 7.11 | weight decrease reported, subjects n (%) ([2]; 20 mg BID): 10 (1.0%) n (%) | weight loss of greater than 10%, subjects n (%) ([2]; 20 mg BID, Apremilast-exposure Period): 42 (4.5%) n (%) | Weight % Change Category 0%, n (%) [2, 3]: 74 (7.8) n (%) | Weight % Change Category <−20%, n (%) [2, 3]: 1 (0.1) n (%) | Weight % Change Category >0% to ≦5%, n (%) [2, 3]: 280 (29.7) n (%) | Weight % Change Category >5% to ≦10%, n (%) [2, 3]: 42 (4.5) n (%) | Weight % Change Category >10% to ≦20%, n (%) [2, 3]: 14 (1.5) n (%) | Weight % Change Category >20%, n (%) [2, 3]: 0 n (%) | Weight % Change Category ≧−5% to <0%, n (%) [2, 3]: 393 (41.7) n (%) | Weight % Change Category ≧−10% to <−5%, n (%) [2, 3]: 98 (10.4) n (%) | Weight % Change Category ≧−20% to <−10%, n (%) [2, 3]: 41 (4.3) n (%) | Change From Baseline (kg) Median (Min, Max) [2, 4]: −0.60 (−44.3, 14.0) kg | Weight, kg End of Period Mean ± SD [2, 4]: 84.38 ± 20.636 kg | Change From Baseline (kg) Mean ± SD ([2]; 20 mg BID, End of Period (APR, apremilast exposure), Subjects as Initially Treated at Week 0, listed as APR): -1.13 kg and -1.13 ± 4.491 kg | Change From Baseline (kg) Median (Min, Max) [2, 5]: −0.50 (−17.2, 11.5) kg | Weight, kg End of Period Mean ± SD [2, 5]: 84.47 ± 20.734 kg | Change From Baseline (kg) Mean ± SD ([2]; 20 mg BID, End of Period (PBC, Week 24), Subjects as Initially Treated at Week 0, listed as APR): -1.05 kg and -1.05 ± 3.366 kg | Change From Baseline (kg) Mean ± SD [2, 6]: -1.16 ± 4.255 kg | Change From Baseline (kg) Median (Min, Max) [2, 6]: −0.50 (−44.3, 14.0) kg | Weight, kg Time Point Mean ± SD [2, 6]: 84.65 ± 20.541 kg | Change From Baseline (kg) Median (Min, Max) [2, 7]: −1.00 (−26.0, 12.5) kg | Weight, kg Time Point Mean ± SD [2, 7]: 84.89 ± 20.190 kg | Change From Baseline (kg) Mean ± SD ([2]; 20 mg BID, Week 52, Apremilast Subjects as Treated, listed as APR): -1.25 kg and -1.25 ± 4.223 kg | Change From Baseline (kg) Median (Min, Max) [2, 8]: −1.00 (−44.3, 14.0) kg | Weight, kg Time Point Mean ± SD [2, 8]: 86.63 ± 19.721 kg | Change From Baseline (kg) Mean ± SD ([2]; 20 mg BID, Week 78, Apremilast Subjects as Treated, listed as APR): -1.70 kg and -1.70 ± 6.192 kg | Weight % Change Category 0%, n (%) ([2]; 20 mg BID, Weeks 0-16, m = 868): 122 (14.1) n (%) | Weight % Change Category <−20%, n (%) ([2]; 20 mg BID, Weeks 0-16, m = 868): 0 n (%) | Weight % Change Category >0% to ≦5%, n (%) ([2]; 20 mg BID, Weeks 0-16, m = 868): 260 (30.0) n (%) | Weight % Change Category >5% to ≦10%, n (%) ([2]; 20 mg BID, Weeks 0-16, m = 868): 13 (1.5) n (%) | Weight % Change Category >10% to ≦20%, n (%) ([2]; 20 mg BID, Weeks 0-16, m = 868): 1 (0.1) n (%) | Weight % Change Category >20%, n (%) ([2]; 20 mg BID, Weeks 0-16, m = 868): 0 n (%) | Weight % Change Category ≧−5% to <0%, n (%) ([2]; 20 mg BID, Weeks 0-16, m = 868): 431 (49.7) n (%) | Weight % Change Category ≧−10% to <−5%, n (%) ([2]; 20 mg BID, Weeks 0-16, m = 868): 35 (4.0) n (%) | Weight % Change Category ≧−20% to <−10%, n (%) ([2]; 20 mg BID, Weeks 0-16, m = 868): 6 (0.7) n (%) | observed weight loss of greater than 10%, subjects n (%) ([2]; 20 mg BID, Weeks 0 to 16): 6 (0.7%) n (%) | percentage of subjects with weight change of -10% to <−5% ([2]; 20 mg BID, Weeks 0 to 16): 4.0% | weight decrease reported, subjects n (%) ([2]; 30 mg BID): 15 (1.5%) n (%) | weight loss of greater than 10%, subjects n (%) ([2]; 30 mg BID, Apremilast-exposure Period): 36 (3.8%) n (%) | Weight % Change Category 0%, n (%) [2, 9]: 71 (7.5) n (%) | Weight % Change Category <−20%, n (%) [2, 9]: 0 n (%) | Weight % Change Category >0% to ≦5%, n (%) [2, 9]: 272 (28.8) n (%) | Weight % Change Category >5% to ≦10%, n (%) [2, 9]: 46 (4.9) n (%) | Weight % Change Category >10% to ≦20%, n (%) [2, 9]: 8 (0.8) n (%) | Weight % Change Category >20%, n (%) [2, 9]: 4 (0.4) n (%) | Weight % Change Category ≧−5% to <0%, n (%) [2, 9]: 387 (41.0) n (%) | Weight % Change Category ≧−10% to <−5%, n (%) [2, 9]: 120 (12.7) n (%) | Weight % Change Category ≧−20% to <−10%, n (%) [2, 9]: 36 (3.8) n (%) | Change From Baseline (kg) Median (Min, Max) [2, 10]: −1.00 (−23.0, 17.1) kg | Weight, kg End of Period Mean ± SD [2, 10]: 83.61 ± 19.766 kg | Change From Baseline (kg) Mean ± SD ([2]; 30 mg BID, End of Period (APR, apremilast exposure), Subjects as Initially Treated at Week 0, listed as APR): -1.26 kg and -1.26 ± 4.120 kg | Change From Baseline (kg) Median (Min, Max) [2, 11]: −0.60 (−13.7, 11.4) kg | Weight, kg End of Period Mean ± SD [2, 11]: 83.90 ± 19.670 kg | Change From Baseline (kg) Mean ± SD ([2]; 30 mg BID, End of Period (PBC, Week 24), Subjects as Initially Treated at Week 0, listed as APR): -0.97 kg and -0.97 ± 3.016 kg | Change From Baseline (kg) Mean ± SD [2, 12]: -0.96 ± 5.534 kg | Weight, kg Time Point Mean ± SD [2, 12]: 84.09 ± 20.309 kg | Change From Baseline (kg) Median (Min, Max) [2, 13]: −1.30 (−23.0, 11.8) kg | Weight, kg Time Point Mean ± SD [2, 13]: 84.16 ± 19.253 kg | Change From Baseline (kg) Mean ± SD ([2]; 30 mg BID, Week 52, Apremilast Subjects as Treated, listed as APR): -1.68 kg and -1.68 ± 4.049 kg | Change From Baseline (kg) Median (Min, Max) [2, 14]: −2.00 (−16.0, 17.1) kg | Weight, kg Time Point Mean ± SD [2, 14]: 83.53 ± 18.202 kg | Change From Baseline (kg) Mean ± SD ([2]; 30 mg BID, Week 78, Apremilast Subjects as Treated, listed as APR): -2.14 kg and -2.14 ± 4.605 kg | Weight % Change Category 0%, n (%) ([2]; 30 mg BID, Weeks 0-16, m = 857): 111 (13.0) n (%) | Weight % Change Category <−20%, n (%) ([2]; 30 mg BID, Weeks 0-16, m = 857): 0 n (%) | Weight % Change Category >0% to ≦5%, n (%) ([2]; 30 mg BID, Weeks 0-16, m = 857): 266 (31.0) n (%) | Weight % Change Category >5% to ≦10%, n (%) ([2]; 30 mg BID, Weeks 0-16, m = 857): 10 (1.2) n (%) | Weight % Change Category >10% to ≦20%, n (%) ([2]; 30 mg BID, Weeks 0-16, m = 857): 1 (0.1) n (%) | Weight % Change Category >20%, n (%) ([2]; 30 mg BID, Weeks 0-16, m = 857): 3 (0.4) n (%) | Weight % Change Category ≧−5% to <0%, n (%) ([2]; 30 mg BID, Weeks 0-16, m = 857): 424 (49.5) n (%) | Weight % Change Category ≧−10% to <−5%, n (%) ([2]; 30 mg BID, Weeks 0-16, m = 857): 35 (4.1) n (%) | Weight % Change Category ≧−20% to <−10%, n (%) ([2]; 30 mg BID, Weeks 0-16, m = 857): 7 (0.8) n (%) | observed weight loss of greater than 10%, subjects n (%) ([2]; 30 mg BID, Weeks 0 to 16): 7 (0.8%) n (%)
